# Results published in US20220071925A1, “MEDICINAL COMPOSITION FOR PREVENTING OR TREATING BONE DISEASES” (GEXVAL INC., priority 2019, published 2022).
# Key:
# GPR40 = GPR40 (Homo sapiens, UniProt O14842); details: cited from earlier work
# R264.7 cells = assay: Combined effect of compounds on LPS-stimulated mouse macrophage-derived cells, gene expression by RNA sequencing (Test Example 2); type: cell-based; details: LPS 100 ng/mL 24 h, free fatty acid (stearic acid) 10 μM, Fasiglifam 10 μM, alone or in combination
# Description: The combined effect of the compounds on the change when macrophage cells were stimulated by lipopolysaccharide (LPS) derived from bacteria was examined by integrated gene expression analysis using RNA next-generation sequencing. […].7 cells purchased from KAC Co., Ltd. were used in the test. The cells were suspended in DMEM with 10% serum, seeded in a 24-well plate at a concentration of 1.6×10^5 cells/well, and cultured at 37° C. under a 5% CO2 condition. 30 minutes prior to addition of LPS, a free fatty acid at 10 μM and Fasiglifam at 10 μM were added alone or in combination. Stearic acid was used as the free fatty acid. After culturing for 30 minutes after addition of the compound, LPS was added to each well at a concentration of 100 ng/mL. PBS of the same amount as LPS was added to a non-stimulated control group. After culturing for 24 hours with the addition of LPS, the medium was removed, and total RNA was extracted using RNeasy (QIAGEN). mRNA was recovered from the total RNA to prepare a library, and RNA sequencing (Illumina Hiseq) was performed. Samples from the following five groups were sequenced, and the expression level of each gene was estimated from the obtained read count data. […] Further, these expression-fluctuated genes were subjected to a pathway analysis to examine their association with the disease.
# osteoclasts [1] = details: caused by interaction of osteoclasts (RANK) with osteoblasts (RANKL); cited from earlier work
# [2] = in vivo; cited from earlier work
# osteoclasts [3] = details: action of GW9508 on GPR40; cited from earlier work
# Chain of GPR40 (O14842 whole entry, species assumed): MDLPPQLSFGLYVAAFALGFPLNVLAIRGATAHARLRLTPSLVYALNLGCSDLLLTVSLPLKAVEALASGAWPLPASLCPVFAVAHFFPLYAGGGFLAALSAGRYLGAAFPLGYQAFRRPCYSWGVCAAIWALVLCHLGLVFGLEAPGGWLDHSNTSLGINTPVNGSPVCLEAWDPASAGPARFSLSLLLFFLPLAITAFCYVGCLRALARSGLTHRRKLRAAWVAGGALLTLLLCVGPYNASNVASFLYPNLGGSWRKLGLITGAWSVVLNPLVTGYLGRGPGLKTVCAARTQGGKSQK
smiles,measurement,setting,value
"Cc1cc(OCCCS(C)(=O)=O)cc(C)c1-c1cccc(COc2ccc3c(c2)OC[C@H]3CC(=O)O)c1 [Fasiglifam, [(3S)-6-({2′,6′-dimethyl-4′-[3-(methylsulfonyl)propoxy]biphenyl-3-yl}methoxy)-2,3-dihydro-1-benzofuran-3-yl]acetic acid]",agonist selectivity GPR40 versus GPR120,GPR40,selective agonist for GPR40
same,AAAS expression level,R264.7 cells,0
same,BCL2L1 expression level,R264.7 cells,0
same,C3AR1 expression level,R264.7 cells,0
same,CCL2 expression level,R264.7 cells,0
same,CCL3 expression level,R264.7 cells,0
same,CCL4 expression level,R264.7 cells,0
same,CD36 expression level,R264.7 cells,0
same,CSF1R expression level,R264.7 cells,0
same,CSF3 expression level,R264.7 cells,0
same,DUSP5 expression level,R264.7 cells,0
same,EIF4B expression level,R264.7 cells,0
same,EIF4G2 expression level,R264.7 cells,0
same,GBP7 expression level,R264.7 cells,0
same,GRIN1 expression level,R264.7 cells,0
same,IL7R expression level,R264.7 cells,0
same,IP6K2 expression level,R264.7 cells,0
same,LYN expression level,R264.7 cells,0
same,NF1 expression level,R264.7 cells,0
same,NOS2 expression level,R264.7 cells,0
same,PIK3CD expression level,R264.7 cells,0
same,PIM1 expression level,R264.7 cells,0
same,PIP5K1C expression level,R264.7 cells,0
same,PLAUR expression level,R264.7 cells,0
same,PLEKHO2 expression level,R264.7 cells,0
same,PPP2CA expression level,R264.7 cells,0
same,PSMA6 expression level,R264.7 cells,0
same,PSMA7 expression level,R264.7 cells,0
same,PSMC2 expression level,R264.7 cells,0
same,PSMD13 expression level,R264.7 cells,0
same,PYGB expression level,R264.7 cells,0
same,RASGRP3 expression level,R264.7 cells,0
same,SDCBP expression level,R264.7 cells,0
same,SMPD1 expression level,R264.7 cells,0
same,SUMO1 expression level,R264.7 cells,0
same,TNF expression level,R264.7 cells,0
same,TNFRSF1B expression level,R264.7 cells,0
same,TNFSF8 expression level,R264.7 cells,0
same,TNRC6B expression level,R264.7 cells,0
"CCCCCCCCCCCCCCCCCC(=O)O [Fatty acid, Stearic acid]",AAAS expression level,R264.7 cells,0
same,BCL2L1 expression level,R264.7 cells,0
same,C3AR1 expression level,R264.7 cells,0
same,CCL2 expression level,R264.7 cells,0
same,CCL3 expression level,R264.7 cells,0
same,CCL4 expression level,R264.7 cells,0
same,CD36 expression level,R264.7 cells,0
same,CSF1R expression level,R264.7 cells,0
same,CSF3 expression level,R264.7 cells,0
same,DUSP5 expression level,R264.7 cells,0
same,EIF4B expression level,R264.7 cells,0
same,EIF4G2 expression level,R264.7 cells,0
same,GBP7 expression level,R264.7 cells,0
same,GRIN1 expression level,R264.7 cells,0
same,IL7R expression level,R264.7 cells,0
same,IP6K2 expression level,R264.7 cells,0
same,LYN expression level,R264.7 cells,0
same,NF1 expression level,R264.7 cells,0
same,NOS2 expression level,R264.7 cells,0
same,PIK3CD expression level,R264.7 cells,0
same,PIM1 expression level,R264.7 cells,0
same,PIP5K1C expression level,R264.7 cells,0
same,PLAUR expression level,R264.7 cells,0
same,PLEKHO2 expression level,R264.7 cells,0
same,PPP2CA expression level,R264.7 cells,0
same,PSMA6 expression level,R264.7 cells,0
same,PSMA7 expression level,R264.7 cells,0
same,PSMC2 expression level,R264.7 cells,0
same,PSMD13 expression level,R264.7 cells,0
same,PYGB expression level,R264.7 cells,0
same,RASGRP3 expression level,R264.7 cells,0
same,SDCBP expression level,R264.7 cells,0
same,SMPD1 expression level,R264.7 cells,0
same,SUMO1 expression level,R264.7 cells,0
same,TNF expression level,R264.7 cells,0
same,TNFRSF1B expression level,R264.7 cells,0
same,TNFSF8 expression level,R264.7 cells,0
same,TNRC6B expression level,R264.7 cells,0
O=C(O)CCc1ccc(NCc2cccc(Oc3ccccc3)c2)cc1 [GW9508],formation of osteoclasts (differentiation and maturation into osteoclasts),osteoclasts [1],suppressing the formation of osteoclasts
same,bone loss due to ovariectomy,[2],bone loss due to ovariectomy can be prevented
same,agonist selectivity GPR40 versus GPR120,GPR40,dual agonist for GPR40 and GPR120
same,differentiation into osteoclasts,osteoclasts [3],the differentiation into osteoclasts is suppressed
